Measurements: publication PMC12040169 (PLOS Biology, 2025)

Assay: in vitro
Details: human, hela cells, % viability

Row | SMILES | viability at 28.5 h, 10 µM [%]
1 | COc1ccc(CNc2cncc(-c3cncc(OC)c3)n2)cc1 [CBK065388] | 98.5
2 | COc1cc(-c2cncc(N3CCCC3CO)n2)cc(OC)c1OC (centres unmarked) [CBK065389] | 104
3 | CN(C)CCNC(=O)c1cccc(-c2cncc(N3CCN(c4ccncc4)CC3)n2)c1 [CBK065391] | 100
4 | CCCC/C=C/c1cncc(N2CCCC2CO)n1 (centres unmarked) [CBK065402] | 91.8
5 | CC(=O)Nc1cccc(-c2cncc(NC3CCC(O)CC3)n2)c1 (centres unmarked) [CBK065404] | 88.6
6 | CN(C)CCN1CCN(c2cncc(-c3cccnc3)n2)CC1 [CBK065416] | 93.2
7 | COc1cc(CNc2cncc(-c3cccc(C(=O)NCCO)c3)n2)cc(OC)c1OC [CBK065421] | 98.5
8 | CC(C)[C@@H](CO)Nc1cncc(-c2cccc(CO)c2)n1 [CBK065427] | 95.2
9 | OCC1CCCN1c1cncc(-c2cccnc2)n1 (centres unmarked) [CBK065439] | 100
10 | CCCNc1cncc(-c2cccc(F)c2)n1 [CBK065441] | 97.3
11 | OCc1cccc(-c2cncc(NC3CCC(O)CC3)n2)c1 (centres unmarked) [CBK065448] | 102
12 | OC1CCC(Nc2cncc(-c3cccc(F)c3)n2)CC1 (centres unmarked) [CBK065449] | 97.8
13 | OC1CCC(Nc2cncc(-c3ccc4ccccc4c3)n2)CC1 (centres unmarked) [CBK065463] | 91.7
14 | CC(C)[C@@H](CO)Nc1cncc(-c2cccnc2)n1 [CBK065467] | 98.5
15 | CCCC/C=C/c1cncc(N[C@@H](C)c2ccccc2)n1 [CBK065472] | 109
16 | COc1cc(CNc2cncc(-c3ccc(N)cc3)n2)cc(OC)c1OC [CBK065483] | 96.5
17 | CC(CCCC(C)(C)O)Nc1cncc(-c2cccc(C(=O)O)c2)n1 (centres unmarked) [CBK065489] | 103
18 | CC(C)[C@H](CO)Nc1cncc(-c2cccc3ccccc23)n1 [CBK065501] | 85.9
19 | COc1ccc(C(C)C)cc1-c1cncc(N[C@@H](C)c2ccccc2)n1 [CBK065504] | 115
20 | c1ccc(CCNc2cncc(-c3cccs3)n2)nc1 [CBK065510] | 98.2
21 | O=C(c1ccco1)N1CCN(c2cncc(-c3cccs3)n2)CC1 [CBK065518] | 114
22 | C[C@H](Nc1cncc(-c2ccccc2CO)n1)c1ccccc1 [CBK065520] | 116
23 | CC(CCCC(C)(C)O)Nc1cncc(-c2ccccc2CO)n1 (centres unmarked) [CBK065529] | 96.3

Row | SMILES | viability at 28.5 h, 10 µM [%]
24 | CCC(CO)Nc1cncc(-c2cccs2)n1 (centres unmarked) [CBK065534] | 110
25 | COc1ccc(C(C)C)cc1-c1cncc(N[C@H](C)c2ccccc2)n1 [CBK065535] | 105
26 | COc1cncc(-c2cncc(N[C@H](C)c3ccccc3)n2)c1 [CBK065537] | 98.9
27 | CN1CCCN(c2cncc(-c3cccs3)n2)CC1 [CBK065542] | 101
28 | CC(C)[C@H](CO)Nc1cncc(-c2cccc(N(C)C)c2)n1 [CBK065547] | 81.9
29 | CN(C)c1cccc(-c2cncc(NCc3ccco3)n2)c1 [CBK065555] | 106
30 | CC(C)[C@@H](CO)Nc1cncc(-c2cccc3ccccc23)n1 [CBK065566] | 98.4
31 | CCC(CO)Nc1cncc(-c2cccc(/C=C/C(=O)O)c2)n1 (centres unmarked) [CBK065569] | 114
32 | c1coc(CNc2cncc(-c3cccc4ccccc34)n2)c1 [CBK065573] | 115
33 | c1csc(-c2cncc(NCc3ccncc3)n2)c1 [CBK065583] | 94.6
34 | CC(=O)Nc1ccc(-c2cncc(NCCCO)n2)cc1 [CBK065598] | 103
35 | CC(C)(CO)CNc1cncc(-c2cccs2)n1 [CBK065599] | 88.3
36 | c1csc(-c2cncc(NCCCN3CCOCC3)n2)c1 [CBK065623] | 102
37 | c1coc(CNc2cncc(-c3cccs3)n2)c1 [CBK065630] | 96.6
38 | CN(C)c1cccc(-c2cncc(NCCCN3CCOCC3)n2)c1 [CBK065635] | 94.8
39 | C[C@@H](Nc1cncc(-c2cccc3ccccc23)n1)c1ccccc1 [CBK065646] | 93.4
40 | CN(C)CCN(C)c1cncc(-c2ccc(F)cc2F)n1 [CBK065652] | 90.9
41 | C[C@H](Nc1cncc(-c2cccc3ccccc23)n1)c1ccccc1 [CBK065654] | 93.6
42 | N#Cc1ccccc1N1CCN(c2cncc(-c3cccs3)n2)CC1 [CBK065656] | 104
43 | CCNc1cncc(-c2ccc(N)cc2)n1 [CBK065658] | 112
44 | COc1cc(Nc2cncc(-c3cccs3)n2)cc(OC)c1OC [CBK065663] | 80.4
45 | CN(C)CCN(C)c1cncc(-c2cccs2)n1 [CBK065679] | 108
46 | Nc1ccc(-c2cncc(N3CCN(c4ccncc4)CC3)n2)cc1 [CBK065681] | 97

Row | SMILES | viability at 28.5 h, 10 µM [%]
47 | C[C@H](Nc1cncc(-c2ccc(F)cc2F)n1)c1ccccc1 [CBK065684] | 98.9
48 | Fc1ccc(-c2cncc(Nc3ccc4c(c3)OC(F)(F)C(F)(F)O4)n2)c(F)c1 [CBK065692] | 103
49 | C[C@H](Nc1cncc(-c2cccc(N(C)C)c2)n1)c1ccccc1 [CBK065699] | 96.8
50 | CCN(CC)CCN1CCN(c2cncc(-c3cccs3)n2)CC1 [CBK065703] | 95.5
51 | N#Cc1ccccc1N1CCN(c2cncc(-c3ccc(F)cc3F)n2)CC1 [CBK065708] | 102
52 | C[C@H](Nc1cncc(-c2cccs2)n1)c1ccccc1 [CBK065719] | 93.5
53 | CCOc1ccc(-c2cncc(N[C@@H](C)c3ccccc3)n2)cc1 [CBK065720] | 106
54 | CN(C)CCN(C)c1cncc(-c2ccc(Cl)cc2)n1 [CBK065724] | 93
55 | CC(=O)Nc1ccc(-c2cncc(Nc3ccc4c(c3)OC(F)(F)C(F)(F)O4)n2)cc1 [CBK065726] | 98.7
56 | FC1(F)Oc2ccc(Nc3cncc(-c4cccs4)n3)cc2OC1(F)F [CBK065727] | 110
57 | CCOc1ccc(-c2cncc(Nc3ccc4c(c3)OC(F)(F)C(F)(F)O4)n2)cc1 [CBK065728] | 96.8
58 | CN(C)c1cccc(-c2cncc(Nc3ccc(Cl)cc3)n2)c1 [CBK065738] | 98.8
59 | OCCN(CCO)c1cncc(-c2ccc(Cl)cc2)n1 [CBK065748] | 95.2
60 | FC(F)(F)c1cccc(Nc2cncc(-c3cccs3)n2)c1 [CBK065750] | 125
61 | CCN(CC)CCN1CCN(c2cncc(-c3cccc(N)c3)n2)CC1 [CBK065751] | 97.2
62 | CCC(CO)Nc1cncc(-c2cccc(F)c2)n1 (centres unmarked) [CBK065752] | 96.1
63 | Fc1ccc(-c2cncc(Nc3cccc(C(F)(F)F)c3)n2)c(F)c1 [CBK065763] | 92.5
64 | CC(=O)Nc1ccc(-c2cncc(Nc3ccc(F)c(Cl)c3)n2)cc1 [CBK065765] | 96.1
65 | CCOc1ccc(-c2cncc(NCCc3ccncc3)n2)cc1 [CBK065774] | 94.6
66 | CCC(CO)Nc1cncc(-c2ccccc2CO)n1 (centres unmarked) [CBK065775] | 103
67 | CCC(CO)Nc1cncc(-c2cccc(C(F)(F)F)c2)n1 (centres unmarked) [CBK065783] | 99.4
68 | O=C(NCCO)c1cccc(-c2cncc(N3CCN(Cc4ccccn4)CC3)n2)c1 [CBK065784] | 90.1
